From patent publication US20050282843A1, “Therapeutic applications of 2-substituted 4-heteroarylpyrimidines” (priority 2002, published 2005)
Read-outs that look alike come from different tables or passages of the source.

Tests used:
[1] = biological target: GSK-3β (Oryctolagus cuniculus, UniProt G1T8E2); assay: GSK-3β kinase assay (phosphorylation of CREB phosphopeptide); format: biochemical, rabbit
Protocol: (§1) GSK-3 was obtained from New England Biolabs (UK) Ltd., Hitchin, Herts. The recombinant enzyme was isolated from a strain of E. coli that carries a clone expressing GSK-3β derived from a rabbit skeletal muscle cDNA library [Wang, Q. M.; Fiol, C. […] The samples were transferred to 96-well p81 filter plates (Whatman Polyfiltronics, Kent, UK), and the plates were washed 4 times with 200 μL/well of 75 mM aq orthophosphoric acid.

[2] = tested on: GSK-3β; assay: as above; format: biochemical, rabbit; settings: ratio of IC50 values
Protocol: as §1

[3] = biological target: T1, CDK2/cyclin E (Homo sapiens, UniProt P24941); assay: CDK/cyclin kinase assay, CDK2/cyclin E; format: biochemical; settings: read-out: Kinase inhibition IC50 CDK2/E
T1 construct: His6; made in house; host or cells: Sf9 insect cells (baculovirus)
Protocol: (§3) His6-tagged recombinant human cyclin-dependant kinases CDK1/cyclin B1, CDK2/cyclin E, CDK2/cyclin A, and CDK4 were expressed in sf9 insect cells using a baculovirus expression system. Recombinant cyclin D1 was expressed in E. coli. […] Kinase assays were performed in 96-well plates using recombinant CDK/cyclins. […] Reactions were stopped on ice, followed by filtration through p81 or GF/C filterplates (for CDK4) (Whatman Polyfiltronics, Kent, UK). After washing 3 times with 75 mM aq orthophosphoric acid, plates were dried, scintillant added and incorporated radioactivity measured in a scintillation counter (TopCount, Packard Instruments, Pangbourne, Berks, UK). Compounds for kinase assays were made up as 10 mM stocks in DMSO and diluted into 10% DMSO in assay buffer.

[4] = biological target: CDK4/cyclin D1 (Homo sapiens, UniProt P11802); assay: CDK/cyclin kinase assay, CDK4/cyclin D1
CDK4/cyclin D1, sequence (P11802 whole entry): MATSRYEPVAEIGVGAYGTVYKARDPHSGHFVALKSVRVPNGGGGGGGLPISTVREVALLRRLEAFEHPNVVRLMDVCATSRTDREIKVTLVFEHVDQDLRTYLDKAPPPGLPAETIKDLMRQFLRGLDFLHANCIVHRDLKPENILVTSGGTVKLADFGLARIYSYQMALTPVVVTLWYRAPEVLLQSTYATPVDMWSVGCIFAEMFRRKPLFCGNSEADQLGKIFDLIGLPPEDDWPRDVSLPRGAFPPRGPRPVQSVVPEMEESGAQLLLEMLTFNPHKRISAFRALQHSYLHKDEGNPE
CDK4/cyclin D1, sequence (P24385 whole entry partner): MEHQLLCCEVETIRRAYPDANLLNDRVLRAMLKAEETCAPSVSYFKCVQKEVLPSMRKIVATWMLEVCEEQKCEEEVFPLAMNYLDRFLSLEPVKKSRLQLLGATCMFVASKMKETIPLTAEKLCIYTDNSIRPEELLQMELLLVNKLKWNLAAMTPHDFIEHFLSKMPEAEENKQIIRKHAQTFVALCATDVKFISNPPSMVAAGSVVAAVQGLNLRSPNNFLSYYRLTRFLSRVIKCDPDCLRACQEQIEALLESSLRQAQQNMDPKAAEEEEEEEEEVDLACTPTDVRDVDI
Protocol: as §3

[5] = tested on: cellular glycogen synthase activity in HEK293 cells; assay: Glycogen synthase (GS) assay in HEK293 cells; format: cell-based, human; settings: for -Fold induction of GS activity: In HEK293 cells at [compound] = 5 μM, over control samples; for activity of glycogen synthase, fractional reaction velocity (ratio of activity at 0.1 and 10 mM glucose-6 phosphate): HEK293 cells, dose-dependent, FIG. 1
Protocol: (§2) Cells on 10 cm dishes (Human Embryonic Kidney (HEK) 293 cells, L6 rat myocytes, or 3T3 mouse adipocytes) were treated with different concentrations of GSK3-inhibitors or DMSO vehicle for 90 min. Incubation medium was removed and cells were washed with ice-cold phosphate-buffered saline (PBS) prior to lysis on ice in 50 mM HEPES, pH 7.5, 10 mM EDTA, 100 mM NaF, 5 mM DTT, protease inhibitor cocktail (Sigma). After a freeze/thaw cycle the samples are sonicated for 10 sec and centrifuged at 15,000 g for 10 min at 4° C. Lysate supernatants were snap-frozen on liquid nitrogen and stored at −80° C. Lysates were assayed for glycogen synthase activity in buffer (50 mM Tris-HCl, pH 7.8, 20 mM EDTA, 25 mM NaF, 5 mM DTT, 1% glycogen, 0.3 mM UDP-glucose and 0.06 μCi of [^14C]-UDP-glucose in the presence of 0.1 or 10 mM glucose-6-phosphate. The reaction was carried out for 30 min at 30° C. 70 μL of the reaction mixture (total volume 90 μL) were transferred to a GFC 96-well filter plate (bottom sealed with foil), containing 140 μL 96% ethanol. The GFC plate was incubated for 1 h on ice and than washed with 66% ethanol. To each well 100 μL scintillant liquid was added and the radioactivity of the samples was measured using a scintillation counter (Topcount, HP). Data are expressed as -fold increase in glycogen synthase activity ratios over those of control samples.

[6] = biological target: CDK1/cyclin B1 (Homo sapiens, UniProt P06493); assay: CDK/cyclin kinase assay, CDK1/cyclin B1
CDK1/cyclin B1, sequence (P06493 whole entry): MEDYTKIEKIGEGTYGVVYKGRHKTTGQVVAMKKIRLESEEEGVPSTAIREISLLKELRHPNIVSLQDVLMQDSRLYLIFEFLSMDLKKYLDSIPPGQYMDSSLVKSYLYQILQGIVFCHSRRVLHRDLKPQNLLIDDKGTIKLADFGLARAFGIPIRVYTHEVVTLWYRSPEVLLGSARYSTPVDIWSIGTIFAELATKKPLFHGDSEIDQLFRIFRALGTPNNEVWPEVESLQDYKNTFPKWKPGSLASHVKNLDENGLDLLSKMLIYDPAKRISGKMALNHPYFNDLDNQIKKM
CDK1/cyclin B1, sequence (P14635 whole entry partner): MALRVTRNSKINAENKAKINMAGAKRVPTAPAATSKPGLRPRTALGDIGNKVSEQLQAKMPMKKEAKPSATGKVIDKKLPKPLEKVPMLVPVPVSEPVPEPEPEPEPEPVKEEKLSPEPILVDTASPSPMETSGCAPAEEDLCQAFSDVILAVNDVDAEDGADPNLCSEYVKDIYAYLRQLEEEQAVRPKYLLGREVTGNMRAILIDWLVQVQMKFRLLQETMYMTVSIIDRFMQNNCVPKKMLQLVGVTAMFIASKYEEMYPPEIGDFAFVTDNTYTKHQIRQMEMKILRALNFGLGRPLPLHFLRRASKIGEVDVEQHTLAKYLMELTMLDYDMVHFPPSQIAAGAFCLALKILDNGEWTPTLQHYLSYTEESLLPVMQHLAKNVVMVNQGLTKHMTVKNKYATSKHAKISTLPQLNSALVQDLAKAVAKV
Protocol: as §3

[7] = biological target: CDK2/cyclin A (Homo sapiens, UniProt P24941); assay: CDK/cyclin kinase assay, CDK2/cyclin A
Protocol: as §3

[8] = tested on: cellular glycogen synthase activity in L6 rat myocyte cells; assay: Glycogen synthase (GS) assay in L6 rat myocytes; format: cell-based; settings: for activation of GS: myocytes, at 1 μM; for activity of glycogen synthase, fractional reaction velocity (ratio of activity at 0.1 and 10 mM glucose-6 phosphate): rat myocyte cells, dose-dependent, FIG. 1
Protocol: Rat skeletal muscle myoblasts L6/G8.C5 were seeded at 2.4×10^5 cells per 10 cm dish in DMEM 10% foetal calf serum (FCS), containing penicillin/streptomycin. When 90% confluence was reached the medium was exchanged with α MEM, supplemented with 2% FCS and penicillin/streptomycin. Medium was refreshed every 48 hours and 4-7 days later the myocytes were formed.
as §2

[9] = tested on: cellular glycogen synthase activity in 3T3 mouse adipocyte cells; assay: Glycogen synthase (GS) assay in 3T3 mouse adipocytes; format: cell-based; settings: for activation of GS: adipocytes, at 1 μM; for activity of glycogen synthase, fractional reaction velocity (ratio of activity at 0.1 and 10 mM glucose-6 phosphate): mouse adipocyte cells, dose-dependent, FIG. 1
Protocol: Mouse pre-adipocytes 3T3-F442A were seeded at 9×10^5 cells per 10 cm dish in DMEM 10% FCS, containing penicillin/streptomycin. When 90% confluent, the same medium was supplemented with […] insulin. After 3-5 days (when most cells were differentiated) insulin was removed and 4 days later the cells were ready to use.
as §2

[10] = tested on: male ZDF fa/fa rats; assay: Oral glucose tolerance test (OGTT); format: in vivo, rat
Protocol: For the OGTT male ZDF fa/fa rats (Charles River, USA), 10-11 weeks old, were used. After 15 h fasting the animals were dosed intravenously with 5 mg/kg test compound in dosing vehicle, or with dosing vehicle (10% DMSO, 90% PEG-400) only at −270 and −30 min. At 0 min the rats were given 2 g/kg glucose by oral gavage. Plasma samples were taken before and every 15 min after the OGTT for determination of blood glucose.

[11] = read-out: Kinase inhibition IC50 GSK3β
[12] = read-out: IC50 value as measured by a GSK3β kinase assay
[13] = 5 mg/kg intravenously at -270 and -30 min, OGTT

GSK-3β (Oryctolagus cuniculus, UniProt G1T8E2), sequence (G1T8E2 1-432): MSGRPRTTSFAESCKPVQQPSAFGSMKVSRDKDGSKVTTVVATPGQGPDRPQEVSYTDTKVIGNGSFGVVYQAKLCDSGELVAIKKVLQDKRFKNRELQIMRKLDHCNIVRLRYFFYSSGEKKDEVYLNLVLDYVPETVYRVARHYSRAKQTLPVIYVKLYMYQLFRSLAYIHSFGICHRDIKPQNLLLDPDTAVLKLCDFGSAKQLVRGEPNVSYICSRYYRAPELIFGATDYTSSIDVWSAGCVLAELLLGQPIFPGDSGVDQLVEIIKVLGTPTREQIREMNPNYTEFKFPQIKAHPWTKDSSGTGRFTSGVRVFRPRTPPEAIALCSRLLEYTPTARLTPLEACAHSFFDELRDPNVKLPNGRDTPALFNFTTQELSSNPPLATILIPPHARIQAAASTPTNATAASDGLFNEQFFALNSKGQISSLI

| SMILES | IC50 [1, 11] | Selectivity, IC50 (CDK2/E)/IC50 (GSK3β) [2] | IC50 [3] | melting point | IC50 [4] | IC50 [1, 12] | -Fold induction of GS activity [5] | IC50 [6] | IC50 [7] | activity of glycogen synthase, fractional reaction velocity (ratio of activity at 0.1 and 10 mM glucose-6 phosphate) [5] | activation of GS [8] | activity of glycogen synthase, fractional reaction velocity (ratio of activity at 0.1 and 10 mM glucose-6 phosphate) [8] | activation of GS [9] | activity of glycogen synthase, fractional reaction velocity (ratio of activity at 0.1 and 10 mM glucose-6 phosphate) [9] | glucose tolerance ([10]; 5 mg/kg intravenously at -270 and -30 min, 2 g/kg oral glucose) | decrease of absolute AUC (blood glucose) [10, 13] | decrease of reactive AUC (blood glucose) [10, 13] | insulin levels after treatment ([10]; OGTT) |
| --- | --- | --- | --- | --- | --- | --- | --- | --- | --- | --- | --- | --- | --- | --- | --- | --- | --- | --- |
| Cc1ccc(Nc2nccc(-c3c(C)[nH]c(C#N)c3C)n2)cc1I [Compound 8, 4-[2-(3-Iodo-4-methyl-phenylamino)-pyrimidin-4-yl]-3,5-dimethyl-1H-pyrrole-2-carbonitrile] | 1.8 µM | 0.5 | 0.86 µM | 189.5 to 191.7 °C | 0.98 µM |  |  |  |  |  |  |  |  |  |  |  |  |  |
| Cc1[nH]c(Br)c(C)c1-c1ccnc(Nc2cccc([N+](=O)[O-])c2)n1 [Compound 17, [4-(5-Bromo-2,4-dimethyl-1H-pyrrole-3-yl)-pyrimidin-2-yl]-(3-nitro-phenyl)-amine] | 0.28 µM | 1.3 | 0.37 µM | 198.1 to 203 °C | 4 µM | < 1 µM |  |  |  |  |  |  |  |  |  |  |  |  |
| Cc1ccc(Nc2nccc(-c3sc(=O)n(C)c3C)n2)cc1[N+](=O)[O-] [Compound 36, 3,4-Dimethyl-5-[2-(4-methyl-3-nitro-phenylamino)-pyrimidin-4-yl]-3H-thiazol-2-one] | 0.03 µM | 4.5 | 0.11 µM | 88.4 to 91.6 °C |  | < 0.1 µM | 3.0 -fold | 0.2 µM |  |  |  |  |  |  |  |  |  |  |
| Cc1c(-c2ccnc(Nc3ccc(F)c([N+](=O)[O-])c3)n2)sc(=O)n1C [Compound 28, 5-[2-(4-Fluoro-3-nitro-phenylamino)-pyrimidin-4-yl]-3,4-dimethyl-3H-thiazol-2-one] | 0.002 µM | 85 | 0.17 µM |  | 1.8 µM | < 0.01 µM |  | 1.03 µM | 0.08 µM |  |  |  |  |  |  |  |  |  |
| Cc1cc(Nc2nccc(-c3c(C)[nH]c(C#N)c3C)n2)ccc1Cl [Compound 9, 4-[2-(4-Chloro-3-methyl-phenylamino)-pyrimidin-4-yl]-3,5-dimethyl-1H-pyrrole-2-carbonitrile] | 3.4 µM | 0.3 | 1 µM | 194.2 to 197.9 °C | 4 µM |  |  |  |  |  |  |  |  |  |  |  |  |  |
| Cc1[nH]c([N+](=O)[O-])c(C)c1-c1ccnc(Nc2ccc(N(C)C)cc2)n1 [Compound 15, N-[4-(2,4-Dimethyl-5-nitro-1H-pyrrole-3-yl)-pyrimidin-2-yl]-N′,N′-dimethyl-benzene-1,4-diamine] | 0.95 µM | 1.0 | 0.96 µM | 265 to 268 °C | 1 µM |  |  |  |  |  |  |  |  |  |  |  |  |  |
| Cc1[nH]c(C#N)c(C)c1-c1ccnc(Nc2ccc(I)cc2)n1 [Compound 5, 4-[2-(4-Iodo-phenylamino)-pyrimidin-4-yl]-3,5-dimethyl-1H-pyrrole-2-carbonitrile] | 1.5 µM | 0.4 | 0.55 µM | 178.3 to 181.2 °C | 1.1 µM |  |  |  |  |  |  |  |  |  |  |  |  |  |
| Cc1[nH]c(C#N)c(C)c1-c1ccnc(Nc2ccc(C(F)(F)F)cc2)n1 [Compound 4, 3,5-Dimethyl-4-[2-(4-trifluoromethyl-phenylamino)-pyrimidin-4-yl]-1H-pyrrole-2-carbonitrile] | 2.4 µM | 0.1 | 0.18 µM | 195.6 to 198.9 °C | 2.5 µM |  |  |  |  |  |  |  |  |  |  |  |  |  |
| Cc1[nH]c(C#N)c(C)c1-c1ccnc(Nc2ccc(N(C)C)c([N+](=O)[O-])c2)n1 [Compound 20, 4-[2-(4-Dimethylamino-3-nitro-phenylamino)-pyrimidin-4-yl]-3,5-dimethyl-1H-pyrrole-2-carbonitrile] | 0.005 µM | 30 | 0.15 µM |  | 0.16 µM | < 0.01 µM | 2.4 -fold | 0.05 µM | 0.1 µM | increased the activity of glycogen synthase | 2 -fold | increased the activity of glycogen synthase | 4 -fold | increased the activity of glycogen synthase | improved the glucose tolerance in ZDF rats significantly | 22% | 39% | decreased |
| Cc1[nH]c(C#N)c(C)c1-c1ccnc(Nc2ccc(N(C)C)cc2)n1 [Compound 12, 4-[2-(4-Dimethylamino-phenylamino)-pyrimidin-4-yl]-3,5-dimethyl-1H-pyrrole-2-carbonitrile] | 1.2 µM | 0.5 | 0.54 µM | 190.6 to 193.7 °C | 0.37 µM |  | 1.2 -fold |  |  |  |  |  |  |  |  |  |  |  |
| Cc1c(-c2ccnc(Nc3ccc(N(C)C)cc3)n2)c(C)n(C)c1C#N [Compound 38, 4-[2-(4-Dimethylamino-phenylamino)-pyrimidin-4-yl]-1,3,5-trimethyl-1H-pyrrole-2-carbonitrile] | 0.12 µM | 9.2 | 1.1 µM |  | 1.3 µM |  | 1.3 -fold | 2.8 µM | 0.93 µM |  |  |  |  |  |  |  |  |  |
| Cc1c(-c2ccnc(Nc3ccc(N(C)C)c([N+](=O)[O-])c3)n2)c(C)n(C)c1C#N [Compound 39, 4-[2-(4-Dimethylamino-3-nitro-phenylamino)-pyrimidin-4-yl]-1,3,5-trimethyl-1H-pyrrole-2-carbonitrile] | 0.019 µM | 8.4 | 0.16 µM |  | 1.4 µM | < 0.1 µM | 3.0 -fold | 0.18 µM | 0.22 µM |  |  |  |  |  |  |  |  |  |
| Cc1[nH]c([N+](=O)[O-])c(C)c1-c1ccnc(Nc2ccc(N(C)C)c([N+](=O)[O-])c2)n1 [Compound 21, N^4-[4-(2,4-Dimethyl-5-nitro-1H-pyrrole-3-yl)-pyrimidin-2-yl]-N^1,N^1-dimethyl-2-nitro-benzene-1,4-diamine] | 0.04 µM | 3.5 | 0.14 µM |  | 1.02 µM | < 0.1 µM | 3.3 -fold | 0.3 µM | 0.25 µM | increased the activity of glycogen synthase | 2 -fold | increased the activity of glycogen synthase | 4 -fold | increased the activity of glycogen synthase |  |  |  |  |
| COc1ccc(Nc2nccc(-c3sc(=O)n(C)c3C)n2)cc1 [Compound 24, 5-[2-(4-Methoxy-phenylamino)-pyrimidin-4-yl]-3,4-dimethyl-3H-thiazol-2-one] | 1.1 µM | 0.7 | 0.76 µM |  | 1.1 µM |  |  | 0.97 µM | 0.7 µM |  |  |  |  |  |  |  |  |  |
